Laboratory results published in US7273723B2, “Antibiotic-based gene regulation system” (priority 2001, dated 2007).

Columns and labels:
[1] = test system: MphR(A) or MphR(A)-NLS / plant promoters PETRpON4, PETRpON8; experiment: EpON erythromycin-inducible GUS expression in Nicotiana tabacum SR1 suspension cells; type: cell-based; conditions: 250 μg/ml erythromycin
Method: The transformation protocol of SR1 cells was adapted from Wu and Feng (1999, Plant Cell Reports 18: 381-386). In brief, 200 mg of exponentially growing SR1 cells were harvested by centrifugation. The cells were incubated for 15 min. in 2% DMSO and washed twice in fresh medium. Cells were subsequently resuspended in electroporation buffer (5 mM CaCl2; 10 mM NaCl2; 0.4 M sucrose; 8.7% glycerol; 4 mM ascorbate; 10 mM HEPES; pH 6.8) and mixed with desired DNA at a concentration of 0.2 μg/μl. The cell-DNA mixture was incubated for 10 min. on ice electroporated at 700 V/cm and 980 μF using a BioRad Gene Pulser and appropriate cuvettes. Following electroporation, cells were kept on ice for 10 min. and deplasmolyzed by 4 subsequent additions of 100 μl LS medium at 5 min. intervals. Transformation rates 20%±5% are typically reached with SR1 cells using this modified protocol.
Transformed SR1 cells were incubated at 25° C. for 48 h while rocking at 110 rpm. […] Cells were lysed in extraction buffer (50 mM NaH2PO4; 10 mM EDTA; 0.1% Triton X-100; 0.1% sodium lauryl sarcosine; 10 mM β-mercaptoethanol; pH 7.0) by freezing them in liquid nitrogen and grinding them using a micropestle. Soluble protein extract was collected by centrifugation for 20 min. at 15,000 rpm and 4° C. Protein concentration of plant extracts was determined using a Bradford assay (Bradford, 1976, Anal. Biochem. 72: 248-254). The GUS expression assay was performed following a modified protocol by Jefferson et al. (1987; EMBO J. 6: 3901-3907). In brief, 100 μl of cell extract were incubated in extraction buffer (see above) also containing 1 mM of the β-glucuronidase substrate 4-methylumbelliferyl glucuronide (MUG; Duchefa, NL). The reaction mixture was incubated at 37° C. and 100 μl aliquots were removed at appropriate time intervals and the reaction stopped by addition of 1.9 ml of 0.2 M K2CO3. The fluorescence time course was determined using typical 365 nm/455 nm excitation/emission profiles and a Shimadzu RF-5001 PC spectrofluorophotometer.
For regulated expression in transgenic plants and plant tissue culture an inducible rather than a repressible gene regulation system would be desirable. This enables induction of transgene […] by addition of the antibiotic rather than by its withdrawal. We therefore constructed an erythromycin-inducible plant gene regulation system (EpON) which consisted of the E. coli MphR(A) repressor protein (SEQ ID NO: 4) which binds, in the absence of macrolide antibiotics, to the ETR binding module cloned downstream of a strong constitutive plant promoter (PCaMV35S). Binding of MphR(A) to the ETR module blocks PCaMV35S-mediated target gene expression. […]

[2] = test system: PETR1-YFP and PhCMV*-1-CFP expression units; experiment: Dual-regulated vector pDuoRex9 (pWW94) in CHO-Triplet42 by fluorescence microscopy; type: cell-based; conditions: transient transfection into CHO-Triplet42

With `CC[C@H]1OC(=O)[C@H](C)[C@@H](O[C@H]2C[C@@](C)(OC)[C@@H](O)[C@H](C)O2)[C@H](C)[C@@H](O[C@@H]2O[C@H](C)C[C@H](N(C)C)[C@H]2O)[C@](C)(O)C[C@@H](C)C(=O)[C@H](C)[C@@H](O)[C@]1(C)O` [Erythromycin] the “GUS activity upon addition of erythromycin” value (“GUS activity upon addition” for short) ([1]; pBP8/pBP15 (MphR(A)-NLS / PETRpON4)) was 313.5±39.6 pmoles 4-MU min^−1 mg^−1 protein^−1, the “GUS activity upon addition” value ([1]; pBP8/pBP35 (MphR(A)-NLS / PETRpON8)) was 283.6±24.7 pmoles 4-MU min^−1 mg^−1 protein^−1 and the “GUS activity upon addition” value ([1]; pBP9/pBP15 (MphR(A) / PETRpON4)) was 305.2±24.9 pmoles 4-MU min^−1 mg^−1 protein^−1. The “GUS activity upon addition” value ([1]; pBP9/pBP35 (MphR(A) / PETRpON8)) was 276.7±34.1 pmoles 4-MU min^−1 mg^−1 protein^−1 and the “YFP and CFP expression from pDuoRex9 (fluorescence microscopy)” value [2] was “independent on/off-regulation”.
